Active and inactive are the calls of the source.
How the values were obtained:
Cytochrome P450 2C9 = Cytochrome P450 2C9 (Homo sapiens, UniProt P11712)
Cytochrome P450 2C19 = Cytochrome P450 2C19 (Homo sapiens, UniProt P33261); assay: Cytochrome panel assay with activity outcomes. Panel member name: p450-cyp2c19 Compounds with AC50 equal or less than 10 uM are considered active; format: functional
INS1 = assay: INS-1E survival protection against cytokine death – cell-based, luminescence, retest, dose response (AID 449756); format: functional; conditions: Rattus norvegicus;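 note: cell death triggered by IL-1 beta plus TNF-alpha plus IFN-gamma mixture; protective hits raise ATP signal compared with cytokine alone wells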
Cytochrome P450 1A2 = molecular target: T1, Cytochrome P450 1A2 (Homo sapiens, UniProt P05177);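 note: PubChem cytochrome P450 panel assay, CYP1A2 panel member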
T1 sequence (P05177 whole entry): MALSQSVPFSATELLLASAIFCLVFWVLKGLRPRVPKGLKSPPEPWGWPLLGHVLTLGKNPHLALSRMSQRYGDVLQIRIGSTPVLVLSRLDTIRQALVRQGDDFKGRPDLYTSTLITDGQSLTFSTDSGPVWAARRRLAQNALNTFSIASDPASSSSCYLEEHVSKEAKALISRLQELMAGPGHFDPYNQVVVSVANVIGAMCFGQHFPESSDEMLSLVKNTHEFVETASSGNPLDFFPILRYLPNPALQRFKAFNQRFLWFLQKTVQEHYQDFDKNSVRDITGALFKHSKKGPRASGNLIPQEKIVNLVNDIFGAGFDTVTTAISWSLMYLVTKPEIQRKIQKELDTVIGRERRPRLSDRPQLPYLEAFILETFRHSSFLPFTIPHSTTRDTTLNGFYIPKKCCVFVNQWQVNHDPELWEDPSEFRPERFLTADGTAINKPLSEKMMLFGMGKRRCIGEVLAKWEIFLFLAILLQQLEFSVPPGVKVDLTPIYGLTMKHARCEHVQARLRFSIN

Cytochrome P450 3A4 = Cytochrome P450 3A4 (Homo sapiens, UniProt P08684);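 note: CYP3A4 tested as one member of a cytochrome P450 panel screen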
Sequence of Cytochrome P450 3A4 (P08684 whole entry): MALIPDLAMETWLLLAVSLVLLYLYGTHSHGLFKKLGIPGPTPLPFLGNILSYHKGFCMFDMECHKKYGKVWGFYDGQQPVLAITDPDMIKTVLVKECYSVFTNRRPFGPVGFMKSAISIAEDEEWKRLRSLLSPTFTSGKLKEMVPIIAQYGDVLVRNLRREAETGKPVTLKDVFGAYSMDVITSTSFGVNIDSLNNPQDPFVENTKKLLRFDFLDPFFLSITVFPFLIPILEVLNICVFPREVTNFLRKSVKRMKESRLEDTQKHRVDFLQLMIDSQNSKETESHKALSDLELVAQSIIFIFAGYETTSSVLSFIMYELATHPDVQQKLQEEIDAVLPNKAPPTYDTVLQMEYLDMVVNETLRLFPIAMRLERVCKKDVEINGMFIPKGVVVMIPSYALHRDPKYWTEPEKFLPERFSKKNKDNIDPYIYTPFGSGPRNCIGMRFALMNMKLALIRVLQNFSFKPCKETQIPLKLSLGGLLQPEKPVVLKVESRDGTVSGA

Sequence of Cytochrome P450 2C9 (P11712 whole entry): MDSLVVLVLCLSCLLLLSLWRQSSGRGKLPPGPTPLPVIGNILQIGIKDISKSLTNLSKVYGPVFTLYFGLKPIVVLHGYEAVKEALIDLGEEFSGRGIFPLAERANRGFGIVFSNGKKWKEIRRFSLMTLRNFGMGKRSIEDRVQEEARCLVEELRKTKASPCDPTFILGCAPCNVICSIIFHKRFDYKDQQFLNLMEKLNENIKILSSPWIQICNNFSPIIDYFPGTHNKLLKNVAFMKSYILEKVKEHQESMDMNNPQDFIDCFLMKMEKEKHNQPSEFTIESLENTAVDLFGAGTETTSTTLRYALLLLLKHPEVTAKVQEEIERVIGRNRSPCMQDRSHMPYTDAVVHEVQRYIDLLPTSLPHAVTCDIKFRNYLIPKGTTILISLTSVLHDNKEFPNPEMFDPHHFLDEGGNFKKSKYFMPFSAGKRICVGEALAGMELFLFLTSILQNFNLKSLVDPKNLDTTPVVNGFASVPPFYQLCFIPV
Sequence of Cytochrome P450 2C19 (P33261 whole entry): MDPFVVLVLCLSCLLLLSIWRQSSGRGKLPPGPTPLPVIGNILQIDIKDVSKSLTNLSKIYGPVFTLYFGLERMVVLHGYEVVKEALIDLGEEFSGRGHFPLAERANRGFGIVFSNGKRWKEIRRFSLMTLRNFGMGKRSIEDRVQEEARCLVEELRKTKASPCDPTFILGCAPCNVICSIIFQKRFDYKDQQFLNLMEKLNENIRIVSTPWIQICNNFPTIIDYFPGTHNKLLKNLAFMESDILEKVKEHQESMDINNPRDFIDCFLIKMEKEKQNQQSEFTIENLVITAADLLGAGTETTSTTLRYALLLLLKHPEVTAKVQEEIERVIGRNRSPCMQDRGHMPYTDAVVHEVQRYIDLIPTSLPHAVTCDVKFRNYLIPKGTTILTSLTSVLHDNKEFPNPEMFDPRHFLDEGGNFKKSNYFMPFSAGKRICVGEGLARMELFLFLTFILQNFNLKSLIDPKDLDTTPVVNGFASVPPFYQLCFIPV

## COCCCn1nnnc1SCC(=O)N1CCCC1
Cytochrome P450 2C9
  AC50: 0.0126 µM (inconclusive)
Cytochrome P450 2C19; read-out: AC50
  AC50: 25.1 µM (inconclusive)

## C=C[C@H](CC(C)C)N(Cc1ccccc1)S(=O)(=O)N(Cc1ccc(OC)cc1)[C@H](C=C)CC(C)C
INS1
  AC50: 5.78 µM (active)

## COc1cnc(-c2ccccn2)nc1Sc1c(Cl)cccc1Cl
Cytochrome P450 1A2
  AC50: 2.82 µM (inconclusive)
Cytochrome P450 2C9
  AC50: 15.8 µM (inconclusive)
Cytochrome P450 2C19; read-out: AC50
  AC50: 8.91 µM (inconclusive)

## CCCCN1C(=O)/C(=C\c2ccco2)C(=O)N(CCc2ccccc2)C1=O
Cytochrome P450 1A2
  AC50: 28.2 µM (inconclusive)
Cytochrome P450 3A4
  AC50: 12.6 µM (inconclusive)

## CN1C(=O)C(CC(=O)Nc2ccc(F)cc2)N(CCCc2ccccc2)C1=S (stereo not drawn)
Cytochrome P450 1A2
  AC50: 25.1 µM (inconclusive)
Cytochrome P450 3A4
  AC50: 22.4 µM (inconclusive)
Cytochrome P450 2C9
  AC50: 2.82 µM (inconclusive)
Cytochrome P450 2C19; read-out: AC50
  AC50: 1.78 µM (inconclusive)

## NCCNC(=S)S
Cytochrome P450 2C9
  AC50: 6.31 µM (inconclusive)
Cytochrome P450 2C19; read-out: AC50
  AC50: 3.98 µM (inconclusive)

## COc1cc2c(C(=O)NCc3ccc(C)o3)cn(CC(C)C)c(=O)c2cc1OC
Cytochrome P450 1A2
  AC50: 1.58 µM (inconclusive)
Cytochrome P450 2C9
  AC50: 10 µM (inconclusive)

## C/C(Cl)=C/CSc1nnc2n(N)c(=O)c3ccccc3n12
Cytochrome P450 2C9
  AC50: 22.4 µM (inconclusive)
Cytochrome P450 2C19; read-out: AC50
  AC50: 25.1 µM (inconclusive)

## O=C1[C@@H]2[C@H]3[C@H](O)[C@H](O)C/C(=N/OC[C@@H](O)COCc4ccco4)[C@H]3CC[C@H]2C(=O)N1c1ccc(F)cc1F
Cytochrome P450 3A4
  AC50: 3.16 µM (inconclusive)
Cytochrome P450 2C19
  AC50: inconclusive

## CCCCCCc1ccc(N2C[C@H](Cc3ccccc3)[C@@H](CC(=O)NCc3ccc(OC)cc3)C2=O)cc1
INS1
  AC50: 7.78 µM (active)

## COC(=O)c1ccc(NC(C)=O)o1
Cytochrome P450 1A2
  AC50: 22.4 µM (inconclusive)
Cytochrome P450 2C19; read-out: AC50
  AC50: 39.8 µM (inconclusive)

## CCC1(O)c2ccccc2-c2ncccc21 (stereo not drawn)
Cytochrome P450 2C19; read-out: AC50
  AC50: 39.8 µM (inconclusive)

## Cn1cccc1C(=O)N1CCC2(CCN(Cc3ccccc3)CC2)CC1
Cytochrome P450 2C19; read-out: AC50
  AC50: 39.8 µM (inconclusive)

## Clc1ccc(C(c2ccc(Cl)cc2)[n+]2ccn(C[C@@H](OCc3ccc(Cl)cc3Cl)c3ccc(Cl)cc3Cl)c2)cc1
Cytochrome P450 2C19; read-out: AC50
  AC50: 25.1 µM (inconclusive)

## Cc1ccc(CN(C(=O)c2cc3ccccc3oc2=O)C2CCS(=O)(=O)C2)cc1 (stereo not drawn)
Cytochrome P450 1A2
  AC50: 31.6 µM (inconclusive)
Cytochrome P450 3A4
  AC50: 4.47 µM (inconclusive)

## COc1ccc(-[n+]2c(-c3ccc(Cl)cc3)cn3c2CCCCC3)cc1
INS1
  AC50: 1.44 µM (active)

## O=[N+]([O-])c1ccc(N2CCN(CCOc3nonc3-c3ccccc3)CC2)c(Cl)c1
INS1
  AC50: 4.8 µM (active)
Cytochrome P450 3A4
  AC50: 14.1 µM (inconclusive)

## CC(C)(CS)C(=O)N1CCC[C@H]1C(=O)O
Cytochrome P450 2C19; read-out: AC50
  AC50: 15.8 µM (inconclusive)

## Cc1noc(C)c1C(=O)N1CCC[C@@]2(CCN(Cc3cc(C(F)(F)F)cc(C(F)(F)F)c3)C2)C1
Cytochrome P450 3A4
  AC50: 7.94 µM (inconclusive)
Cytochrome P450 2C19
  AC50: inconclusive

## Cc1cc(C)nc(NN2C(=O)/C(=C/c3ccccc3)SC2=S)n1
Cytochrome P450 2C19
  AC50: inconclusive

## Cc1cccc(-c2c3c(=O)n(C)c(=O)n(C)c3cn2C2CCCCC2)c1
Cytochrome P450 2C19
  AC50: inconclusive

## N#Cc1ccc(-c2csc(NNC(=O)c3ccccc3)n2)cc1
INS1
  AC50: > 260 µM (inactive)

## CCOC(=O)c1cc(NC(=O)c2ccc(C)cc2)c(=O)oc1-c1ccccc1
Cytochrome P450 3A4
  AC50: 28.2 µM (inconclusive)
Cytochrome P450 2C19; read-out: AC50
  AC50: 2.82 µM (inconclusive)

## Cc1cccc(CS(=O)(=O)Cc2ccc(C(=O)NCc3ccco3)o2)c1
Cytochrome P450 1A2
  AC50: 5.01 µM (inconclusive)
Cytochrome P450 3A4
  AC50: 39.8 µM (inconclusive)
Cytochrome P450 2C9
  AC50: 7.08 µM (inconclusive)
Cytochrome P450 2C19; read-out: AC50
  AC50: 3.55 µM (inconclusive)
